The target of data set [1] is T1, human CRTH2 (Homo sapiens, UniProt Q9Y5Y4).
T1 construct: expressed in transfected cells; host or cells: L1.2 cells, pEAK expression vector, puromycin-selected
T1 sequence (Q9Y5Y4 1-395): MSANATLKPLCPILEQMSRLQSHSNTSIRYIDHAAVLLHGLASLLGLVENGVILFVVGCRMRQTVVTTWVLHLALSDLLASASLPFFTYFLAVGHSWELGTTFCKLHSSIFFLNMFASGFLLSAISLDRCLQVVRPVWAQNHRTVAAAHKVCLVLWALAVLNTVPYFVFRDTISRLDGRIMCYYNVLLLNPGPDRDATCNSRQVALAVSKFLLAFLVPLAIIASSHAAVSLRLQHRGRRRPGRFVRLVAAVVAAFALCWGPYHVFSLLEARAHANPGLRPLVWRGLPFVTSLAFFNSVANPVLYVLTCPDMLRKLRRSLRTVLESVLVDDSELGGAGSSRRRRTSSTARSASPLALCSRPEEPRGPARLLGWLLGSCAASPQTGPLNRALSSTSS
The experiment in a line: Measurement of Ca2+ mobilization in the human CRTH2-transfected L1.2 cell line (Assay 1). In kind it is cell-based. The settings on record: PGD2-induced Ca2+ mobilization in CRTH2-transfected L1.2 cells; compounds as yielded by solid phase synthesis, purity about 40 to 90%; read-out: Activity class. The method, then: Human CRTH2 cDNA was amplified from human eosinophil cDNA with gene specific primers containing restriction sites for cloning into pEAK vector (Edge Bio Systems). The human CRTH2 cDNA was cloned into the mammalian expression vector pEAK. This expression plasmid (40 μg) was transfected into L1.2 cells, at a cell density of 1×10^7 cells/500 μl, by using electroporation apparatus (Gene Pulser II, BioRad) at 250V/1,000 μF. One day after the transfection, puromycin (1 μg/ml, Sigma) was added into the cell culture plates. Two weeks after the transfection, grown cells were picked up for further growth.
[Measurement of Ca^2+ Mobilization in the Human CRTH2-Transfected L1.2 Cell Line] (Assay 1)
Ca^2+ loading buffer was prepared by mixing 5 μl of Fluo-3AM (2 mM in DMSO, final 1 μM, Molecular Probes) and 10 μl of pluronic F-127 (Molecular Probes) and diluting the resulting mixture in 10 ml of Ca^2+ assay buffer (20 mM HEPES pH 7.6, 0.1% BSA, 1 mM probenecid, Hanks' solution). The CRTH2 transfected cells which were prepared in Example 1 were washed with PBS, resuspended in Ca^2+ loading buffer at 1×10^7 cells/ml, and incubated for 60 min at room temperature. After incubation, cells were washed and resuspended in Ca^2+ assay buffer, then dispensed into transparent-bottom 96-well plates (#3631, Costar) at 2×10^5 cells/well. Cells were incubated with various concentrations of test compound for 5 minutes at room temperature. The emitted 480 nm fluorescence was measured on FDSS6000, a Ca^2+-measurement apparatus (Hamamatsu Photonics, Hamamatsu, Japan).
Assay results in Assay 1 are shown in Examples and tables of the Examples below. The data corresponds to the compounds as yielded by solid phase synthesis and thus to levels of purity of about 40 to 90%. For practical reasons, the compounds are grouped in four classes of activity as follows: IC50=A(< or =)10 nM<B(< or =)100 nM<C(< or =)500 nM<D
Background: A change in cytosolic calcium serves as a functional read-out for many receptors and channels.

In general, melting point refers to the temperature of the solid-liquid transition.

In the case of `CN(C)c1nc(Cc2ccc(NC(=O)c3ccc(Cl)cc3)cc2)nc(N2CCCC2)c1CC(=O)O` [Example 7-29], the melting point fell in the range of 140 to 142 °C. The IC50 in data set [1] lay in the range of 10 to 100 nM.
The corresponding values for `O=C(O)Cc1c(Cl)nc(Cc2ccc(NC(=O)/C=C/c3ccc(Cl)cc3)cc2)nc1N1CCCC1` [Example 1-65] are 188 to 190 °C and less than 10 nM.
In the same order, the values of `CN(CC(=O)NC1CCCC1)c1nc(Cc2ccc(NC(=O)c3cc4ccccc4o3)cc2)nc(Cl)c1CC(=O)O` [Example 1-25] are 118 °C and less than 10 nM.
In the same order, the values of `CN(CC(=O)NC1CCCC1)c1nc(Cc2ccc(NC(=O)c3ccccn3)cc2)nc(Cl)c1CC(=O)O` [Example 1-2] are greater than 135 °C and greater than 500 nM.
With `CC(=O)Nc1ccc(Cc2nc(Cl)c(CC(=O)O)c(N(C)CC(=O)NC3CCCC3)n2)cc1` [Example 1-10], the melting point was greater than 118 °C. In data set [1], the IC50 was greater than 500 nM.
`O=C(O)Cc1c(Cl)nc(Cc2ccc(NC(=O)c3ccc(C(F)(F)F)cc3)cc2)nc1N1CCCC1` [Example 1-64]: the melting point is 162 °C. For the same compound, in data set [1], the IC50 is less than 10 nM.
The corresponding values for `CN(C)c1nc(Cc2ccc(NC(=O)OCc3ccc(C(F)(F)F)cc3)cc2)ncc1CC(=O)O` [Example 9-8] are 91 to 93 °C and less than 10 nM.
In the same order, the values of `CN(CC(=O)NC1CCCC1)c1nc(Cc2ccc(NC(=O)/C=C/c3ccccc3)cc2)nc(Cl)c1CC(=O)O` [Example 1-17] are 142 °C and less than 10 nM.
The corresponding values for `O=C(O)Cc1cnc(Cc2ccc(NC(=O)c3ccc4ccccc4c3)cc2)nc1N1CCCC1` [Example 2-31] are 150 to 151 °C and less than 10 nM.
As for `CN(CC(=O)N1CCCC1)c1nc(Cc2ccc(NC(=O)c3ccc4ccccc4c3)cc2)nc(Cl)c1CC(=O)O` [Example 1-3], the melting point turned out to be 177 °C. Moreover, in data set [1], the IC50 was less than 10 nM.
`CN(C)c1nc(Cc2ccc(NC(=O)c3cccc(Oc4ccccc4)c3)cc2)nc(N2CCCC2)c1CC(=O)O` [Example 7-23] showed a melting point of 123 to 125 °C. The IC50 in data set [1] lay in the range of 10 to 100 nM.
The corresponding values for `CN(C)c1nc(Cc2ccc(NC(=O)OCc3ccccc3)cc2)nc(N(C)C)c1CC(=O)O` [Example 9-7] are 100 °C and less than 10 nM.
The corresponding values for `COCCN(C)c1nc(Cc2ccc(NC(=O)c3ccc4ccccc4c3)cc2)nc(Cl)c1CC(=O)O` [Example 3-5] are 144 °C and less than 10 nM.
The corresponding values for `COCc1nc(Cc2ccc(NC(=O)c3ccc(C(F)(F)F)cc3)cc2)nc(N(C)C)c1CC(=O)O` [Example 8-7] are 126 to 128 °C and less than 10 nM.
The compound `CC(c1ccc(NC(=O)c2ccc(C(F)(F)F)cc2)cc1)c1ncc(CC(=O)O)c(N(C)C)n1` (stereo not shown) [Example 2-22] had a melting point of 151 to 154 °C. For the same compound, the IC50 in data set [1] was less than 10 nM.
In the same order, the values of `CN(C)c1nc(Cc2ccc(NC(=O)c3cccc(Cl)c3)cc2)nc(Cl)c1CC(=O)O` [Example 1-47] are greater than 108 °C and less than 10 nM.
The corresponding values for `CN(C)c1nc(Cc2ccc(NC(=O)COc3ccccc3)cc2)nc(N2CCOCC2)c1CC(=O)O` [Example 7-26] are 172 to 175 °C and greater than 500 nM.
On to `Cc1ccc(CC(=O)Nc2ccc(Cc3nc(Cl)c(CC(=O)O)c(N(C)CC(=O)NC4CCCC4)n3)cc2)cc1` [Example 1-15], for which the melting point is greater than 116 °C. Moreover, the IC50 in data set [1] fell in the range of 10 to 100 nM.
In the case of `CN(C)c1nc(Cc2ccc(NC(=O)c3cc(Cl)ccc3Cl)cc2)nc(Cl)c1CC(=O)O` [Example 1-44], the melting point worked out at 96 °C. Also, in data set [1], the IC50 was less than 10 nM.
The corresponding values for `CN(CC(=O)NC1CCCC1)c1nc(Cc2ccc(NC(=O)c3ccco3)cc2)nc(Cl)c1CC(=O)O` [Example 1-11] are greater than 119 °C and 100 to 500 nM.

The record behind these values is patent publication US7960393B2, “Pyrimidine derivatives useful for the treatment of diseases mediated by CRTH2” (Actimis Pharmaceuticals, Inc., priority 2002, dated 2011).
